Laboratory results published in patent US5128369A, “Arylalkylamine derivatives” (Kyowa Hakko Kogyo Co., Ltd., priority 1989, dated 1992).

Legend:
[1] = tested on: dd-mice; test: Acute toxicity (minimum lethal dose); assay type: in vivo; conditions: male dd-mice, mortality for seven days
Protocol: The compounds were orally administrated (po) or intraperitoneally administrated (ip) to three male dd-mice weighing 20±1 g. Minimum lethal dose (MLD) was determined by observing the mortality for seven days after the administration.

[2] = tested on: PCA reaction; test: 48 hour-homologous passive cutaneous anaphylaxis (PCA) test in rats (antiallergic effects); assay type: in vivo, rat (male Wistar); set-up: key to Anti-PCA MED (minimum effective dosage): NE: no effect; conditions: rat, oral, 1 hour before PCA challenge, inhibition 50% or higher in at least one of three animals; for minimal effective dose: read-out: Anti-PCA MED (minimum effective dosage)
Protocol: Antiallergic effects: Antiallergic effects of compounds were studied by passive cutaneous anaphylaxis (PCA) test in rats. Male Wistar rats weighing 180 to 220 g were used for collection of antiserum and Male Wistar rats weighing 120 to 140 g for PCA test. (A) Preparation of anti-EWA serum in rat Anti-EWA rat serum was prepared by the method of Stotland, et al [Can. J. Physiol. Pharmacol., 52, 1114, (1974)] as follows. That is, 1 mg of EWA, 20 mg of aluminium hydroxide gel and 0.5 ml of mixed vaccine of pertussis, diphtheria and tetanus were mixed, and the mixture was subcutaneously injected in four foodpads of rats. After 14 days, the blood of sensitized rats was collected from the carotid artery. The serum was separated by centrifugation from collected blood, and stored at -80° C. The 48 hour homologous PCA titer of the serum was 1 :64. (B) Effects on 48 hour-homologous PCA tests in rats Three rats in each group were passively sensitized with 8 hold diluted anti-EWA serum (0.05 ml) intradermally injected in two sites of shaved dosal area of rats. After 47 hours, the test compound or its solvent (saline or CMC solution) was orally administrated, and 1 hour thereafter, PCA reaction was induced by intravenous administration of 1% Evan's blue in saline (0.5 ml/100 g) containing 2 mg of EWA. After 30 minutes, animals were sacrificed by bleeding and dorsal skin was stripped to determine the leakage of dye at blue spots, by the method of Katayama et al. [Microbiol. Immunol., 22, 89 (1978)]. The blue-dyed spots were dissected and placed in a test tube containing 1 ml of 1N sodium hydroxide and incubated at 37° C. for 48 hours. Then, 9 ml of a mixture of 0.6N phosphate:acetone (5:13) was added thereto. After shaking, the mixture was centrifuged at 2500 rpm for 10 minutes. A supernatant was separated, and extravasated dye in the supernatant was determined photometrically at 620 nm. Inhibition percent was calculated as follows: [formula]

[3] = tested on: tracheae (zig-zag strips from passively sensitized guinea pigs); test: passive Schultz-Dale reaction (bronchodilatory effects), relaxation of antigen-contracted tracheal strips; set-up: species or system guinea pig (male Hartley); conditions: Cavia porcellus; EWA (1 μg/ml)-induced contraction, guinea pig trachea, 37° C., cumulative addition; read-out: Bronchodilatory effect IC50 (concentration to produce 50% relaxation)
Protocol: Effects on passive Schultz-Dale reaction (bronchodilatory effects)
After 24 hours, the guinea pigs were stunned and exsanguinated, and then tracheae were removed. The zig-zag strips of the tracheae were prepared by the method of Emmerson, et al. [J. Pharm. […] After the contraction reached stable plateau, the compounds were cumulatively added in order to get concentration-relaxation curves.

Row | Structure (SMILES) | Acute Toxicity MLD ip (minimum lethal dose) [1] [mg/kg] | Acute Toxicity MLD po (minimum lethal dose) [1] [mg/kg] | Anti-PCA MED (minimum effective dosage) [2] | IC50 [3] [nM] | minimal effective dose [2] [mg/kg]
1 | CC(CC1OCCc2ccccc21)NC[C@@H](O)c1ccccc1 (stereo partly drawn) [Compound 6, (1S)-2-[2-(Isochroman-1-yl)-1-methylethylamino]-1-phenylethanol] | > 100 | 200 | NE | 12000 | –
2 | CC(CC1OCCc2ccccc21)NC(C)C(O)c1ccc(O)cc1 (centres unmarked) [Compound 24, 1-(4-Hydroxyphenyl)-2-[2-(isochroman-1-yl)-1-methylethylamino]-1-propanol] | > 100 | > 300 | NE | 1600 | –
3 | CC(CC1OCCc2ccccc21)NC[C@H](O)c1ccccc1 (stereo partly drawn) [Compound 5, (1R)-2-[2-(Isochroman-1-yl)-1-methylethylamino]-1-phenylethanol] | 25 | 200 | – | 19 | 1
4 | CC(CC1OCCc2ccccc21)NCC(O)c1ccccc1O (centres unmarked) [Compound 8, 1-(2-Hydroxyphenyl)-2-[2-(isochroman-1-yl)-1-methylethylamino]ethanol] | 100 | 200 | NE | 53 | –
5 | CC(CC1OCCc2ccccc21)NCC(O)c1ccccc1 (centres unmarked) [Compound 4, 2-[2-(Isochroman-1-yl)-1-methylethylamino]-1-phenylethanol] | 100 | 200 | – | 260 | 10
6 | CC(CC1OCCc2ccccc21)NCC(O)c1cccc(O)c1 (centres unmarked) [Compound 7, 1-(3-Hydroxyphenyl)-2-[2-(isochroman-1-yl)-1-methylethylamino]ethanol] | 100 | 300 | – | 11 | 10
7 | CC(CC1CCCc2ccccc21)NCC(O)c1ccc(O)cc1 (centres unmarked) [Compound 30, 1-(4-Hydroxyphenyl)-2-[2-(1,2,3,4-tetrahydro-1-naphthyl)-1-methylethylamino]ethanol] | > 100 | > 300 | – | 1.95 | 10
8 | CC(CC1OCCc2ccccc21)NCC(O)c1cc(O)cc(O)c1 (centres unmarked) [Compound 9, 1-(3,5-Dihydroxyphenyl)-2-[2-(isochroman-1-yl)-1-methylethylamino]ethanol] | – | 200 | – | 1.18 | –
9 | CC(CC1OCCc2ccccc21)NCC(O)c1cccs1 (centres unmarked) [Compound 20, 2-[2-(Isochroman-1-yl)-1-methylethylamino]-1-thienylethanol] | > 100 | > 300 | NE | 36.1 | –
10 | CC(CC1c2ccccc2CCN1C)NCC(O)c1ccc(O)cc1 (centres unmarked) [Compound 31, 1-(4-Hydroxyphenyl)-2-[1-methyl-2-(2-methyl-1,2,3,4-tetrahydroisoquinolin-1-yl)ethylamino]ethanol] | > 100 | > 300 | NE | 85 | –
11 | COC(CNC(C)CC1OCCc2ccccc21)c1ccc(O)cc1 (centres unmarked) [Compound 25, 2-(4-Hydroxyphenyl)-N-[2-(isochroman-1-yl)-1-methylethylamino]-2-methoxyethylamine] | – | – | NE | 2.4 | –
12 | CC(CC1OCCc2ccccc21)NCC(O)c1ccc(F)cc1 (centres unmarked) [Compound 16, 1-(4-Fluorophenyl)-2-[2-(isochroman-1-yl)-1-methylethylamino]ethanol] | > 100 | 300 | NE | 61.4 | –
13 | CC(CC1OCCc2ccccc21)NC[C@@H](O)c1ccc(O)cc1 (stereo partly drawn) [Compound 3, (1S)-1-(4-hydroxyphenyl)-2-[2-(isochroman-1-yl)-1-methylethylamine]ethanol] | – | – | NE | 2.76 | –
14 | CC(CC1OCCc2ccccc21)NCC(O)Cc1ccccc1 (centres unmarked) [Compound 26, 1-[2-(Isochroman-1-yl)-1-methylethylamino]-3-phenyl-2-propanol] | – | – | NE | 9040 | –
15 | CC(CC1OCCc2ccccc21)NCC(O)c1ccc(Cl)cc1 (centres unmarked) [Compound 17, 1-(4-Chlorophenyl)-2-[2-(isochroman-1-yl)-1-methylethylamino]ethanol] | 100 | 100 | – | 3400 | 1
16 | Oc1ccc(C(O)CNCCC2OCCc3ccccc32)cc1 (centres unmarked) [Compound 23, 1-(4-Hydroxyphenyl)-2-[2-(isochroman-1-yl)ethylamino]ethanol] | – | – | – | 8.76 | –
17 | CC(CC1OCCc2ccccc21)NC[C@H](O)c1ccc(O)cc1 (some centres unmarked) [Compound 2, (IR)-1-(4-hydroxyphenyl)-2-[2-(isochroman-1-yl)-1-methylethylamino]ethanol] | > 100 | > 300 | – | 0.612 | 10
18 | CC(CC1OCCc2ccccc21)NCC(O)c1ccc(O)cc1 (centres unmarked) [Compound 1, 1-(4-Hydroxyphenyl)-2-[2-(isochroman-1-yl)-1-methylethylamino]ethanol] | > 100 | > 300 | – | 12.8 | 10
19 | COc1ccc(C(O)CNC(C)CC2OCCc3ccccc32)cc1 (centres unmarked) [Compound 10, 2-[2-(Isochroman-1-yl)-1-methylethylamino]-1-(4-methoxyphenyl)ethanol] | 100 | 200 | – | 81 | 10
